Drawing on ChEMBL document CHEMBL1201862, “PubChem BioAssay data set” (2004), this text covers EC50, AC50 and IC50 for 3 compounds.

In general, EC50 refers to the concentration at which the effect is half-maximal. As usually defined, the AC50 is the concentration giving half of the maximal activity seen. One may read the IC50 as the point on the concentration scale where inhibition reaches its midpoint.

Calls of active or inactive are those of the source. For most assays here, no stated cut-off is given here; in the data, active = IC50 of 20 µM or less and inactive = more.

For test [1], the target named is T1, Heat shock factor protein 1 (Mus musculus, UniProt P38532).
T1 sequence (P38532 whole entry): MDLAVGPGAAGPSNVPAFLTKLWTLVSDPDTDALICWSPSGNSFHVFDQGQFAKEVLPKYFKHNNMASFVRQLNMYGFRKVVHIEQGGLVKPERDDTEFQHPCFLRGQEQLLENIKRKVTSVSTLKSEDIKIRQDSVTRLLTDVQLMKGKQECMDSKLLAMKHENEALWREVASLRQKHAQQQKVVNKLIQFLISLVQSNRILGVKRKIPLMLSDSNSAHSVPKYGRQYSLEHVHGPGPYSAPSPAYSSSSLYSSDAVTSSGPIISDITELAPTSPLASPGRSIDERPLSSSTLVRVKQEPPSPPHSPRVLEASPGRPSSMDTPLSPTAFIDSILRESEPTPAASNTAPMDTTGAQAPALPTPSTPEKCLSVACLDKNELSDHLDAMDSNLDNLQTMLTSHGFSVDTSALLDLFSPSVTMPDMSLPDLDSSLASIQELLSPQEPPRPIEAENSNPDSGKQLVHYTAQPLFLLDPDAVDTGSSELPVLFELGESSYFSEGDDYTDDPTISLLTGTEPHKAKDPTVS
In words: inhibition of MG132-induced HSE-luciferase signal, confirmation, cell-based, NIH3T3, luminescence, dose retest (AID 2382).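 Further: NIH3T3 fibroblasts with HSF1-driven luciferase reporter stressed by proteasome inhibitor MG132; luminescence from HSF1-driven luciferase expression after 8 hours of MG132 stress.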 Format: functional.

Test [2] relates to Escherichia coli. Put plainly: microbe, parasite or virus in culture.
Test [3] deals with Hexokinase-1 (Homo sapiens, UniProt P19367). Put plainly: SAR analysis of small molecule inhibitors of hexokinase domain containing I (HKDC1) in the hexokinase 1 selectivity assay. [Related pubchem assays (depositor defined):AID493160, AID493190]. Format: functional.
Hexokinase-1, sequence (P19367 whole entry, the tested form may be a part): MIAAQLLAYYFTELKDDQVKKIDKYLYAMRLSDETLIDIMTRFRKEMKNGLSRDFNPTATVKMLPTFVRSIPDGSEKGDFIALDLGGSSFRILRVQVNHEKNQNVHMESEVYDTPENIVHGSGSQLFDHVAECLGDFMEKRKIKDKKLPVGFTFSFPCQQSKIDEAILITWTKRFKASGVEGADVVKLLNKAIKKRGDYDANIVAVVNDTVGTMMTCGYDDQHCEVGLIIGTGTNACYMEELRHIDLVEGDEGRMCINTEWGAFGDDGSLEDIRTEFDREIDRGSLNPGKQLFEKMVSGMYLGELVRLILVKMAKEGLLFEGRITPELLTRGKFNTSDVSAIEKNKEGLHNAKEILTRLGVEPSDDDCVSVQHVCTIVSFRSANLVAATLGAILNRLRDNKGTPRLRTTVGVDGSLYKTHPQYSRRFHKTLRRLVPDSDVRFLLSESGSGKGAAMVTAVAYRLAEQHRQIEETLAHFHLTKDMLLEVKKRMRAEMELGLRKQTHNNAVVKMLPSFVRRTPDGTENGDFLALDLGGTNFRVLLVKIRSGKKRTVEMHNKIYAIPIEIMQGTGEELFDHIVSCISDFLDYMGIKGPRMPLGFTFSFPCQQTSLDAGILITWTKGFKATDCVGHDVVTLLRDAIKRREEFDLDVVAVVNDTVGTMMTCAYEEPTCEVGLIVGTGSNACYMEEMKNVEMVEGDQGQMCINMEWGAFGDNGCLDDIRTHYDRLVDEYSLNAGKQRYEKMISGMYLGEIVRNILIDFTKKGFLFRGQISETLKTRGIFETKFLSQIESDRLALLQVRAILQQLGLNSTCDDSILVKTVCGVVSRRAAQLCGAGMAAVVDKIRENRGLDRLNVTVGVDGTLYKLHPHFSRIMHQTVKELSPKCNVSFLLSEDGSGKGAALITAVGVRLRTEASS
Test [4] has as its target T2, Hexokinase HKDC1 (Homo sapiens, UniProt Q2TB90).
T2 sequence (Q2TB90 whole entry): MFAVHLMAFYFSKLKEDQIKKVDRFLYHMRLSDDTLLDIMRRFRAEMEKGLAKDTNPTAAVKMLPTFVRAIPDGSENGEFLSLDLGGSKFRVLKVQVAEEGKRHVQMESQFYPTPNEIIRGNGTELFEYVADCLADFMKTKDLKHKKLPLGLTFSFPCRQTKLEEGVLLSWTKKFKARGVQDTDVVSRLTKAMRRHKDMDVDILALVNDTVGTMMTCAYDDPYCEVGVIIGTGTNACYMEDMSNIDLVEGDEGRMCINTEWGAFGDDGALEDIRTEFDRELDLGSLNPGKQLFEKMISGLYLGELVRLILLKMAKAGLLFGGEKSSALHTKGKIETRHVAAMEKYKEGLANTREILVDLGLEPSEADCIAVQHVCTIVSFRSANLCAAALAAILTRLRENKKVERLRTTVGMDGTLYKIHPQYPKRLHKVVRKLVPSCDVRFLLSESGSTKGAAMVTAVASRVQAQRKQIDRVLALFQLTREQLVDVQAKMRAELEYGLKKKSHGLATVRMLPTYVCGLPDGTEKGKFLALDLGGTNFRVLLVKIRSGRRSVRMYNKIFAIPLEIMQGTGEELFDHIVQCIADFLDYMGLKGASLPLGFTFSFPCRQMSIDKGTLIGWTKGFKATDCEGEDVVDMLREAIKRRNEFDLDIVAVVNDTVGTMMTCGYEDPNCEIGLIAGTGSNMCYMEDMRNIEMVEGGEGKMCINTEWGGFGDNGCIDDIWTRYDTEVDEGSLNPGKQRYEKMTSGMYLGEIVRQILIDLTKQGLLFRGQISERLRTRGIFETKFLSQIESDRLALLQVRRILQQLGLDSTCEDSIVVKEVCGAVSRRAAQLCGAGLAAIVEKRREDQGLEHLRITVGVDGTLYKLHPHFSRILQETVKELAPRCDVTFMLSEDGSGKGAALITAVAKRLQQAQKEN
Put plainly: SAR analysis of small molecule inhibitors of hexokinase domain containing I (HKDC1). [Related pubchem assays (depositor defined):AID493160, AID493190]. Format: functional.

For test [5], the system named is HEK293. Put plainly: cytotoxicity in HEK293T NF-kB-Luc cells, SAR follow-up, cytotoxicity control for NF-kB activator project, cell-based, resazurin fluorescence (AID 493251). To be noted: Homo sapiens. Format: functional. For orientation: Resazurin is reduced to fluorescent resorufin, in cell work by metabolically active cells.
For test [6], the system named is HEK293. Put plainly: SAR Analysis of small molecule inhibitors of T-cell specific antigen receptor-induced NF-kB activation in a HEK-293T cell line using a luminescence assay - Set 2. [Related pubchem assays (depositor defined):AID435003, AID435012, AID489026]. To be noted: Homo sapiens. Format: functional, cell-based.
Test [7] concerns Jurkat. Put plainly: SAR Analysis of small molecule inhibitors of T-cell specific antigen receptor-induced NF-kB activation in a Jurkat cell line using a luminescence assay - Set 2. [Related pubchem assays (depositor defined):AID435003, AID435012, AID465]. Format: functional, cell-based. To be noted: Homo sapiens.

On to `CCn1ccnc1CN(C)C(=O)c1cc(COc2ccc(Cl)cc2OC)on1`, for which the EC50 in test [1] is given as > 195 µM (not active). Moreover, the AC50 in test [2] is 160 µM (active).

Turning to `O=c1c2ccccc2nc(/C=C/c2ccncc2)n1-c1ccccc1`, the IC50 in test [3] and in test [4] was > 80 µM (inactive) in each case.

Consider `COc1ccc(C(NC(=O)CCc2ccccc2)c2ccc3cccnc3c2O)cc1` (configuration not stated), for which the IC50 is 22.5 µM (inactive) in test [5], 2.3 µM (active) in test [6] and 2.52 µM (active) in test [7].
